# Experimental data as given in US10202408B2, “Prodrugs and methods of use thereof” (Health Innovation Ventures B.V., priority 2012, dated 2019).
# Entries after “also recorded” stand apart in the source; their conditions may differ.
# Experiments:
# [1] = system: 15% E coli NfsA-expressing HCT116 xenografts; assay: Tumour growth delay, 15% E coli NfsA-expressing HCT116 xenografts; format: in vivo, NIH-III mice; conditions: single dose; 10, 22 and 60 at 1000, 422 and 1330 umol/kg
# Method: (§1) Animals weighed 18-25 g at the time of tumour inoculation. Tumours were grown subcutaneously on the right flank of mice by inoculating cells grown in tissue culture (1×10^7 cells in 100 uL serum free α-MEM). Tumour sizes were monitored three times weekly using electronic callipers and treatments were initiated once tumour diameter reached ≥7 mm.
# (§2) Tumour bearing mice were randomised into the appropriate treatment groups and tumour size and body weight recorded. Test compounds were formulated on the day of the experiment and kept in foil-wrapped tubes out of direct fluorescent light. If recruitment of animals occurred over multiple days, the drug stocks were aliquoted into tubes and frozen once at […] until required. Mice were treated with a single (or BID) dose of prodrug by intraperitoneal injection and thereafter tumour size and body weight was monitored every second day. Tumour volume was calculated as π (l×w×w)/6, where l is the major axis and w is the perpendicular minor axis. Animals were culled when they had reached the appropriate survival endpoint or when body weight loss exceeded 20% of the pre-treatment value.
# [2] = system: 15% E coli NfsA-expressing H1299 xenografts; assay: Tumour growth delay, 15% E coli NfsA-expressing H1299 xenografts; format: in vivo, NIH-III mice; conditions: for tumour growth delay: mixed HCT116 and H1299 xenografts, 15% E coli NfsA cells, single (or BID) intraperitoneal dose
# Method: as §1, §2
# [3] = system: bacterial nitroreductases from the NfsA and NfsB families; assay: GFP SOS assay with nitroreductase over-expression library; format: cell-based, E. coli strain SOS-R4; conditions: single and poly mutated variants of NfsA_Ec, single-mutated variant of NfsA_Bs
# [4] = system: HCT116, H460, H1299 and SiHa wild type cancer cell lines; assay: Oxic versus anoxic low cell density IC50 assay, wild type cancer cell lines; format: cell-based, human; conditions: 4 h anoxia during prodrug exposure versus oxic
# Method: (§3) Compounds were subjected to testing, including low-cell density cytotoxicity assay. Cells (500 cells/well) were seeded in 96-well plates and exposed to prodrug for 4 h, washed, then left to grow for a further 5 days. The SRB assay was employed to determine IC50 values (concentration of prodrug required to inhibit proliferation by 50%). Parental HCT116 cells (HCT116 is a cell line derived from human colon cancer) and cells expressing the example nitroreductase gene nfsA from Escherichia coli were evaluated head-to-head. Parental H1299 cells (H1299 is a cell line derived from lung cancer) and cells expressing the example nitroreductase gene nfsA from Escherichia coli were evaluated head-to-head. Parental HCT116 cells and cells expressing human AKR1C3 were evaluated head-to-head. Parental H1299 cells and cells expressing human AKR1C3 were evaluated head-to-head. In a variation of these assays test compounds were assessed for their ability to give hypoxia-selective cell killing. Here wild type HCT116, H460 (H460 is a cell line derived from lung cancer), H1299 and SiHa cells (SiHa is a cell line derived from cervical cancer) were used in addition to HCT116 cells engineered to over express cytochrome P450 reductase (HCT116 POR), a human one-electron nitroreductase. Low-cell density cytotoxicity assays were performed as above under oxic conditions and compared to experiments where cells were shown 4 h of anoxia during the prodrug exposure period, before being washed free of prodrug and then left to grow for a further 5 days under oxic conditions, as above.
# [5] = system: HCT116 cells engineered to over-express human aldo-ketoreductase 1C3 (AKR1C3); assay: Low cell density IC50 (SRB) assay, HCT116 wild type versus AKR1C3 over-expressing cells; format: cell-based; conditions: 4 h exposure
# Method: as §3
# [6] = system: HCT116 cells engineered to over-express E coli NfsA; assay: Low cell density IC50 (SRB) assay, HCT116 wild type versus E coli NfsA over-expressing cells; format: cell-based, human
# Method: as §3
# [7] = system: HCT116 MCLs over-expressing AKR1C3; assay: Multicellular layer (MCL) clonogenic assay, HCT116 wild type versus AKR1C3 over-expressing MCLs; format: cell-based, human
# Method: (§4) In parallel, a three dimensional high-cell density multi-cellular layer (MCL) clonogenic assay was performed. 1×10^6 cells of either 100% HCT-116^WT or containing 97% WT with a minor 3% HCT-116^NTR cell population were seeded into a collagen-coated Teflon microporous membrane and left to grow for 3 days. MCLs were then exposed to prodrug for 5 h. After treatment, MCLs were enzyme dissociated, diluted in fresh medium and plated to determine clonogenic survival. To discriminate clonogenic activator (NTR+) from target (NTR−) colonies, cells were plated in non-selective medium (total cells) and medium containing 1 μM puromycin (activator cells). Colonies were grown for 10 days before staining. Colonies containing >50 cells were counted. A variation of this assay was also used to assess for evidence of AKR1C3-dependent cytotoxicity. Here either 100% HCT-116W^T or 100% HCT-116^AKR1C3 cells were seeded to provide MCLs that were then exposed to prodrug.
# [8] = system: bacterial nitroreductases from the NfsA and NfsB families; assay: GFP SOS assay with nitroreductase over-expression library; format: cell-based, E. coli strain SOS-R4; conditions: 55 candidate nitroreductase library, 6 h challenge
# Text: The method employed the over-expression of a candidate nitroreductase gene from plasmid pUCX in an SOS reporter strain, as first described in Prosser et al., 2010, Biochem Pharmacol 79, 678-687. In order to enhance the sensitivity of the SOS reporter system, an sfiA::GFP reporter construct was integrated into a CDF-based plasmid (which contains a compatible origin of replication with pUCX) to give the pANODuet reporter plasmid for GFP screening. In addition, nfsA, nfsB, azoR, and nemA genes were deleted to minimise background metabolism, and the tolC gene deleted to minimise efflux of test compounds; this strain was designated SOS-R3. Further improvements were obtained by deleting the mdaB, ycaK, and yieF genes to minimise background metabolism, and by introducing transcriptional terminators to the pANODUET reporter plasmid. This final reporter strain was designated SOS-R4.
# Stored glycerols of the 55-membered nitroreductase library in SOS-R4 were thawed and used to inoculate overnight cultures (Lysogeny Broth (LB) amended with 100 μg ml^−1 Ampicillin, 50 μg ml^−1 Spectinomycin, 0.4% glucose) that were incubated at 30° C., 200 rpm for 16 h. The next morning the GFP-SOS assay was commenced by inoculation of 195 μl fresh assay media (LB+100 μg ml^−1 Ampicillin, 50 μg ml^−1 Spectinomycin, 0.2% glucose, 50 μM IPTG) with 15 μl of overnight culture in individual wells of a 96-well plate. Plates were incubated at 30° C., 200 rpm for 2.5 h (pre-challenge period), following which cultures were diluted 1:2 by splitting 50:50 into fresh assay media (+DMSO to 0.5% final concentration) and fresh challenge media (assay media+drug to desired concentration, DMSO to 0.5% final concentration) to final volumes of 80 μl apiece in duplicate on a 384-well plate. Plates were incubated at 30° C., 200 rpm for 6 h (challenge period). GFP expression was determined at excitation 488 nm/emission 509 nm. Turbidity was determined by OD600 and fluorescence data from any replicates not found to be within 15% of the median culture turbidity were discarded.
# [9] = system: H1299 cells engineered to over-express E coli NfsA; assay: Low cell density IC50 (SRB) assay, H1299 wild type versus E coli NfsA over-expressing cells; format: cell-based, human
# Method: as §3
# [10] = system: HCT116 MCLs with 3% E coli NfsA-expressing cells; assay: MCL clonogenic bystander assay, HCT116 MCLs seeded with 3% E coli NfsA-expressing cells; format: cell-based, human; conditions: 97% wild type HCT116, 3% E coli NfsA-expressing cells
# Method: as §4
# [11] = system: HCT116 POR cell line (over-expressing Cytochrome P450 reductase); assay: Oxic versus anoxic low cell density IC50 assay, HCT116 POR cells; format: cell-based, human; conditions: HCT116 POR cell line compared with wild type
# Method: as §3, with “Low-cell density cytotoxicity assays were performed as above under oxic conditions and compared to experiments where cells were shown 4 h of anoxia during the prodrug exposure period, before being washed free of prodrug and then left to grow for a further 5 days under oxic conditions, as above.” left out
# [12] = system: wild type SiHa tumour xenografts; assay: Excision assay with and without radiation, wild type SiHa tumour xenografts; format: in vivo, NIH-III nude mice; conditions: for cell killing in combination with radiation versus radiation alone: HCT116 POR and wild type SiHa xenografts, 10 or 15Gy, single (or BID) intraperitoneal dose; for hypoxic cell kill in vivo (log cell kill): with or without 10Gy radiation, 22 at 422, 300 and 11 at 1330, 23 at 1000 umol/kg
# Method: (§5) Tumours were grown subcutaneously in the flank of NIH-III mice by inoculating cells grown in tissue culture. Tumours were monitored using electronic calipers. When tumours reached treatment size, mice were randomized to treatment groups (five to seven per group). Compounds were given as single (or BID) intraperitoneal doses alone or 5 min after whole body irradiation (^60Co source). Eighteen hours after treatment, tumours were excised, weighed, minced, dissociated enzymatically, and plated to determine clonogenicity. Clonogens/gram of tissue were calculated relative to controls and effects of treatment were tested for significance (ANOVA with Dunnett's).
# [13] = system: H1299 cells engineered to over-express human aldo-ketoreductase 1C3 (AKR1C3); assay: Low cell density IC50 (SRB) assay, H1299 wild type versus AKR1C3 over-expressing cells; format: cell-based; conditions: 4 h exposure
# Method: as §3
# [14] = system: HCT116 tumour xenografts over-expressing Cytochrome P450 reductase; assay: Excision assay with and without radiation, HCT116 POR tumour xenografts; format: in vivo, mice; conditions: 1330 μmol/kg, with or without 15Gy radiation
# Method: as §5
# [15] = single dose, 10, 22, 60 and 11 at 750, 422, 1330 and 1330 umol/kg
smiles,measurement,setting,value
"CN(CCOP(=O)(O)O)C(=O)c1cc(N(CCBr)CCBr)c(S(C)(=O)=O)cc1[N+](=O)[O-] [compound 10, 2-(5-(bis(2-bromoethyl)amino)-N-methyl-4-(methylsulfonyl)-2-nitrobenzamido)ethyl dihydrogen phosphate]",E coli NfsA mediated anti-tumour efficacy (mean tumour volume),[1],display significant E coli NfsA mediated anti-tumour efficacy
same,tumour growth delay,[2],profound tumour growth delay
same,E coli NfsA mediated anti-tumour efficacy (mean tumour volume),[2]; [15],display significant E coli NfsA mediated anti-tumour efficacy
"CN(CCO)C(=O)c1cc(N(CCBr)CCBr)c(S(C)(=O)=O)cc1[N+](=O)[O-] [compound 14, 5-(bis(2-bromoethyl)amino)-N-(2-hydroxyethyl)-N-methyl-4-(methylsulfonyl)-2-nitrobenzamide]",activity with mutated nitroreductase variants,[3],demonstrated
same,hypoxia-dependent cytotoxicity,[4],increased cytotoxicity in cells under hypoxia
same,AKR1C3-mediated cytotoxicity (IC50 wild type versus AKR1C3),[5],less susceptible to AKR1C3-mediated cytotoxicity than PR-104A
same,E coli NfsA-mediated cytotoxicity (IC50 wild type versus NfsA),[6],produce E coli NfsA-mediated cytotoxicity
same,AKR1C3-dependent clonogenic cell kill in MCLs,[7],do not cause AKR1C3-dependant cytotoxicity
same,metabolism by bacterial nitroreductases (SOS response),[8],substrates for multiple wild type and mutant bacterial nitroreductases from the NfsA and NfsB families
same,E coli NfsA-mediated cytotoxicity (IC50 wild type versus NfsA),[9],produce E coli NfsA-mediated cytotoxicity
same,bystander cell killing in MCLs,[10],display evidence of metabolism by the 3% E coli NfsA-expressing cells with bystander cell killing of the 97% non-expressing neighbour cells
same,Hypoxic Cytotoxicity Ratios (HCR),[11],Larger HCRs; also recorded: The degree of this effect was increased
"CN1CCN(C(=O)c2cc(N(CCBr)CCBr)c(S(C)(=O)=O)cc2[N+](=O)[O-])CC1 [compound 22, (5-(bis(2-bromoethyl)amino)-4-(methylsulfonyl)-2-nitrophenyl)(4-methylpiperazin-1-yl)methanone]",cell killing in combination with radiation versus radiation alone,[12],increased cell killing above what could be achieved with radiation alone
same,hypoxic cell kill in vivo (log cell kill),[12],significant hypoxic cell kill in vivo
same,activity with mutated nitroreductase variants,[3],demonstrated
same,hypoxia-dependent cytotoxicity,[4],increased cytotoxicity in cells under hypoxia
same,AKR1C3-mediated cytotoxicity (IC50 wild type versus AKR1C3),[5],less susceptible to AKR1C3-mediated cytotoxicity than PR-104A
same,E coli NfsA-mediated cytotoxicity (IC50 wild type versus NfsA),[6],produce E coli NfsA-mediated cytotoxicity
same,E coli NfsA mediated anti-tumour efficacy (mean tumour volume),[1],display significant E coli NfsA mediated anti-tumour efficacy
same,AKR1C3-dependent clonogenic cell kill in MCLs,[7],do not cause AKR1C3-dependant cytotoxicity
same,AKR1C3-mediated cytotoxicity (IC50 wild type versus AKR1C3),[13],less susceptible to AKR1C3-mediated cytotoxicity than PR-104A
same,metabolism by bacterial nitroreductases (SOS response),[8],substrates for multiple wild type and mutant bacterial nitroreductases from the NfsA and NfsB families
same,E coli NfsA-mediated cytotoxicity (IC50 wild type versus NfsA),[9],produce E coli NfsA-mediated cytotoxicity
same,bystander cell killing in MCLs,[10],display evidence of metabolism by the 3% E coli NfsA-expressing cells with bystander cell killing of the 97% non-expressing neighbour cells
same,E coli NfsA mediated anti-tumour efficacy (mean tumour volume),"[2]; 500 umol/kg twice daily (BID), total 1000 umol/kg",display significant E coli NfsA mediated anti-tumour efficacy
same,tumour growth delay,[2],profound tumour growth delay
same,E coli NfsA mediated anti-tumour efficacy (mean tumour volume),[2]; [15],display significant E coli NfsA mediated anti-tumour efficacy
same,Hypoxic Cytotoxicity Ratios (HCR),[11],Larger HCRs; also recorded: The degree of this effect was increased
"CS(=O)(=O)OCCN(CCBr)c1ccc([N+](=O)[O-])cc1C(=O)NCCOP(=O)(O)O [compound 60, 2-((2-bromoethyl)(4-nitro-2-((2-(phosphonooxy)ethyl)carbamoyl)phenyl)amino)ethyl methanesulfonate]",E coli NfsA mediated anti-tumour efficacy (mean tumour volume),[1],display significant E coli NfsA mediated anti-tumour efficacy
same,tumour growth delay,[2],profound tumour growth delay
same,E coli NfsA mediated anti-tumour efficacy (mean tumour volume),[2]; [15],display significant E coli NfsA mediated anti-tumour efficacy
"CS(=O)(=O)c1cc([N+](=O)[O-])c(C(=O)NCCOP(=O)(O)O)cc1N(CCBr)CCBr [compound 300, 2-(5-(bis(2-bromoethyl)amino)-4-(methylsulfonyl)-2-nitrobenzamido)ethyl dihydrogen phosphate]",cell killing in combination with radiation versus radiation alone,[12],increased cell killing above what could be achieved with radiation alone
same,hypoxic cell kill in vivo (log cell kill),[12],significant hypoxic cell kill in vivo
same,hypoxic cell kill in vivo (log cell kill),[14],significant hypoxic cell kill in vivo
